Measured values: PubChem BioAssay AID256 (DTP/NCI, 2004)
Where “and” joins values, the source holds several entries; their conditions need not be identical. Equal entries are not always repeated. Toxic doses and inconclusive results are not listed.

Tested on: CD2F1 mice, L1210 leukemia ip, survival T/C
Test: NCI In Vivo Anticancer Drug Screen. Data for tumor model L1210 Leukemia (intraperitoneal) in CD2F1 (CDF1) mice
Details: higher = longer survival
Summary of the method: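 Each value reflects a quotient of treated over vehicle control outcomes in mice with a transplanted tumor.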

[1] = endpoint: mean survival time, dose: 100.0 mg/kg/injection, schedule: Q04DX003 (ip), vehicle: saline with Tween-80
[2] = endpoint: mean survival time, dose: 200.0 mg/kg/injection, schedule: Q04DX003 (ip), vehicle: saline with Tween-80
[3] = endpoint: mean survival time, dose: 400.0 mg/kg/injection, schedule: Q04DX003 (ip), vehicle: saline with Tween-80
[4] = endpoint: mean survival time, dose: 50.0 mg/kg/injection, schedule: Q01DX009 (ip), vehicle: saline
[5] = endpoint: mean survival time, dose: 100.0 mg/kg/injection, schedule: Q01DX009 (ip), vehicle: saline
[6] = endpoint: mean survival time, dose: 200.0 mg/kg/injection, schedule: Q01DX009 (ip), vehicle: saline
[7] = endpoint: mean survival time, dose: 400.0 mg/kg/injection, schedule: Q01DX009 (ip), vehicle: saline
[8] = endpoint: mean survival time, dose: 100.0 mg/kg/injection, schedule: Q04DX002 (ip), vehicle: saline with Tween-80
[9] = endpoint: mean survival time, dose: 200.0 mg/kg/injection, schedule: Q04DX002 (ip), vehicle: saline with Tween-80
[10] = endpoint: mean survival time, dose: 400.0 mg/kg/injection, schedule: Q04DX002 (ip), vehicle: saline with Tween-80
[11] = endpoint: mean survival time, dose: 25.0 mg/kg/injection, schedule: Q04DX003 (ip), vehicle: saline with Tween-80
[12] = endpoint: mean survival time, dose: 50.0 mg/kg/injection, schedule: Q01DX009 (ip), vehicle: saline with Tween-80
[13] = endpoint: mean survival time, dose: 50.0 mg/kg/injection, schedule: Q04DX003 (ip), vehicle: saline with Tween-80
[14] = endpoint: mean survival time, dose: 100.0 mg/kg/injection, schedule: Q01DX001 (ip), vehicle: saline with Tween-80
[15] = endpoint: mean survival time, dose: 100.0 mg/kg/injection, schedule: Q01DX009 (ip), vehicle: saline with Tween-80
[16] = endpoint: mean survival time, dose: 200.0 mg/kg/injection, schedule: Q01DX001 (ip), vehicle: saline with Tween-80
[17] = endpoint: mean survival time, dose: 200.0 mg/kg/injection, schedule: Q01DX009 (ip), vehicle: saline with Tween-80
[18] = endpoint: mean survival time, dose: 100.0 mg/kg/injection, schedule: Q01DX001 (ip), vehicle: saline
[19] = endpoint: mean survival time, dose: 200.0 mg/kg/injection, schedule: Q01DX001 (ip), vehicle: saline
[20] = endpoint: mean survival time, dose: 400.0 mg/kg/injection, schedule: Q01DX001 (ip), vehicle: saline

## C=CCN(CC=C)Cc1cccc(N(CCCl)CCCl)c1 (tested in a mixture with another compound)
endpoint: mean survival time, dose: 50.0 mg/kg/injection, schedule: Q01DX009 (ip), vehicle: Klucel (hydroxypropylcellulose) (HPC)
  T/C: 109 % of control
endpoint: mean survival time, dose: 100.0 mg/kg/injection, schedule: Q01DX009 (ip), vehicle: Klucel (hydroxypropylcellulose) (HPC)
  T/C: 114 % of control

## NCC(S)c1ccc(Cl)cc1 (configuration not stated)
endpoint: mean survival time, dose: 12.5 mg/kg/injection, schedule: Q04DX003 (ip), vehicle: saline
  T/C: 98 % of control
endpoint: mean survival time, dose: 25.0 mg/kg/injection, schedule: Q04DX003 (ip), vehicle: saline
  T/C: 93 % of control
endpoint: mean survival time, dose: 50.0 mg/kg/injection, schedule: Q04DX003 (ip), vehicle: saline
  T/C: 96 % of control

## O=[N+]([O-])c1cccc2c(S(=O)(=O)O)cccc12
[1]
  T/C: 102 % of control
[2]
  T/C: 98 % of control

## CN(C)c1ccc(/C=N\O)c2c1CCC2
[1]
  T/C: 102 % of control
[2]
  T/C: 102 % of control
[3]
  T/C: 100 % of control

## Cc1cc2nc3c(=O)[nH]c(=O)nc-3n(CC(O)C(O)C(O)C(O)CO)c2cc1C (configuration not stated)
endpoint: mean survival time, dose: 25.0 mg/kg/injection, schedule: Q01DX009 (ip), vehicle: saline
  T/C: 101 % of control
endpoint: mean survival time, dose: 25.0 mg/kg/injection, schedule: Q01DX009 (ip), vehicle: suspension in saline
  T/C: 96 % of control
[4]
  T/C: 93 % of control
endpoint: mean survival time, dose: 50.0 mg/kg/injection, schedule: Q01DX009 (ip), vehicle: suspension in saline
  T/C: 104 % of control
[5]
  T/C: 95 % of control
endpoint: mean survival time, dose: 100.0 mg/kg/injection, schedule: Q01DX009 (ip), vehicle: suspension in saline
  T/C: 102 % of control
[6]
  T/C: 98 % of control
endpoint: mean survival time, dose: 200.0 mg/kg/injection, schedule: Q01DX009 (ip), vehicle: suspension in saline
  T/C: 98 % of control
[7]
  T/C: 103 % of control
endpoint: mean survival time, dose: 400.0 mg/kg/injection, schedule: Q01DX009 (ip), vehicle: suspension in saline
  T/C: 98 % of control
endpoint: mean survival time, dose: 800.0 mg/kg/injection, schedule: Q01DX009 (ip), vehicle: saline
  T/C: 95 % of control

## Clc1ccc(/C(=C(\Br)c2ccccc2)c2ccccc2)cc1
[1]
  T/C: 102 % of control and 100 % of control
[2]
  T/C: 100 % of control and 102 % of control
[3]
  T/C: 96 % of control and 94 % of control

## O=c1[nH]cc([N+](=O)[O-])c(=O)[nH]1
[8]
  T/C: 97 % of control
[9]
  T/C: 97 % of control
[10]
  T/C: 101 % of control

## C=CCOCC(O)CNCC(O)COCC=C (configuration not stated)
[1]
  T/C: 100 % of control

## C=CC1CN2CCC1CC2C(O)c1ccnc2ccccc12 (configuration not stated) (tested in a mixture with another compound)
[11]
  T/C: 100 % of control
endpoint: mean survival time, dose: 50.0 mg/kg/injection, schedule: Q01DX001 (ip), vehicle: saline with Tween-80
  T/C: 100 % of control
[12]
  T/C: 96 % of control
[13]
  T/C: 98 % of control
[14]
  T/C: 96 % of control and 92 % of control
[15]
  T/C: 98 % of control
[1]
  T/C: 93 % of control and 100 % of control
[16]
  T/C: 104 % of control and 92 % of control
[17]
  T/C: 90 % of control

## COC1OCCC(C)O1 (configuration not stated)
endpoint: mean survival time, dose: 100.0 mg/kg/injection, schedule: Q04DX002 (ip), vehicle: saline
  T/C: 104 % of control
endpoint: mean survival time, dose: 200.0 mg/kg/injection, schedule: Q04DX002 (ip), vehicle: saline
  T/C: 104 % of control
endpoint: mean survival time, dose: 400.0 mg/kg/injection, schedule: Q04DX002 (ip), vehicle: saline
  T/C: 107 % of control

## CC1CC(OC(=O)c2ccccc2)CCC1=O (configuration not stated)
endpoint: mean survival time, dose: 5.0 mg/kg/injection, schedule: Q01DX001 (ip), vehicle: other
  T/C: 102 % of control
endpoint: mean survival time, dose: 10.0 mg/kg/injection, schedule: Q01DX001 (ip), vehicle: other
  T/C: 106 % of control
endpoint: mean survival time, dose: 20.0 mg/kg/injection, schedule: Q01DX001 (ip), vehicle: other
  T/C: 103 % of control
endpoint: mean survival time, dose: 40.0 mg/kg/injection, schedule: Q01DX001 (ip), vehicle: other
  T/C: 108 % of control
endpoint: mean survival time, dose: 80.0 mg/kg/injection, schedule: Q01DX001 (ip), vehicle: other
  T/C: 96 % of control

## O=[N+]([O-])c1ccccc1C[P+](c1ccccc1)(c1ccccc1)c1ccccc1
[11]
  T/C: 98 % of control
[13]
  T/C: 114 % of control

## C#CCOCC(O)C[As](=O)(O)c1cccc(Cl)c1 (configuration not stated)
endpoint: mean survival time, dose: 6.25 mg/kg/injection, schedule: Q04DX003 (ip), vehicle: saline
  T/C: 104 % of control

## COCC/C=C/CCl
endpoint: mean survival time, dose: 25.0 mg/kg/injection, schedule: Q01DX009 (ip), vehicle: saline with Tween-80
  T/C: 100 % of control
[12]
  T/C: 92 % of control
[15]
  T/C: 100 % of control

## N#CC1C=Cc2ccccc2N1C(=O)Oc1ccccc1 (configuration not stated)
[5]
  T/C: 95 % of control
[6]
  T/C: 93 % of control
[7]
  T/C: 89 % of control

## COC1OC(C2N(c3ccccc3)CCN2c2ccccc2)=CC(OC(C)=O)C1OC(C)=O (configuration not stated)
[1]
  T/C: 97 % of control
[2]
  T/C: 107 % of control
[3]
  T/C: 95 % of control

## Cc1c(CNc2ccc(C(=O)NC(CC(=O)O)CC(=O)O)cc2)ccc2nc(N)nc(N)c12
endpoint: mean survival time, dose: 0.25 mg/kg/injection, schedule: Q01DX009 (ip), vehicle: saline
  T/C: 171 % of control
endpoint: mean survival time, dose: 0.5 mg/kg/injection, schedule: Q01DX009 (ip), vehicle: saline
  T/C: 118 % of control
endpoint: mean survival time, dose: 1.0 mg/kg/injection, schedule: Q01DX009 (ip), vehicle: saline
  T/C: 104 % of control

## CSC(=S)N/N=C/c1ccccn1
[12]
  T/C: 97 % of control
[15]
  T/C: 98 % of control
[1]
  T/C: 103 % of control
[2]
  T/C: 94 % of control

## CCOC(CNc1ccc([N+](=O)[O-])cc1)OCC
[14]
  T/C: 95 % of control and 100 % of control
[15]
  T/C: 100 % of control and 106 % of control
[8]
  T/C: 100 % of control
[1]
  T/C: 94 % of control
[16]
  T/C: 92 % of control and 97 % of control
[17]
  T/C: 100 % of control and 102 % of control
[9]
  T/C: 98 % of control
[2]
  T/C: 104 % of control
endpoint: mean survival time, dose: 400.0 mg/kg/injection, schedule: Q01DX001 (ip), vehicle: saline with Tween-80
  T/C: 101 % of control and 103 % of control
endpoint: mean survival time, dose: 400.0 mg/kg/injection, schedule: Q01DX009 (ip), vehicle: saline with Tween-80
  T/C: 120 % of control and 111 % of control
[10]
  T/C: 100 % of control
[3]
  T/C: 96 % of control

## O=c1[nH]cnc2c1ncn2C1OC(CO)C(O)C1O (configuration not stated)
endpoint: mean survival time, dose: 50.0 mg/kg/injection, schedule: Q01DX001 (ip), vehicle: saline
  T/C: 100 % of control
[18]
  T/C: 100 % of control
[19]
  T/C: 97 % of control
[20]
  T/C: 100 % of control

## O=C(O)/C=C/CC(=O)O
[18]
  T/C: 92 % of control
[19]
  T/C: 97 % of control
[20]
  T/C: 101 % of control

## CC(=O)Oc1ccc2c(c1)C(=O)CCC=C2
endpoint: mean survival time, dose: 12.5 mg/kg/injection, schedule: Q01DX009 (ip), vehicle: other
  T/C: 103 % of control
endpoint: mean survival time, dose: 25.0 mg/kg/injection, schedule: Q01DX009 (ip), vehicle: other
  T/C: 106 % of control
endpoint: mean survival time, dose: 50.0 mg/kg/injection, schedule: Q01DX009 (ip), vehicle: other
  T/C: 108 % of control

## C1CCC(N=C(NC2CCCCC2)NC2CCCCC2)CC1
[1]
  T/C: 109 % of control
[2]
  T/C: 100 % of control

## CCCCCCCCCCCCCCC/C(=C\c1ccc2ccccc2c1)[N+](=O)[O-]
endpoint: mean survival time, dose: 75.0 mg/kg/injection, schedule: Q01DX001 (ip), vehicle: other
  T/C: 95 % of control
endpoint: mean survival time, dose: 150.0 mg/kg/injection, schedule: Q01DX001 (ip), vehicle: other
  T/C: 89 % of control
endpoint: mean survival time, dose: 300.0 mg/kg/injection, schedule: Q01DX001 (ip), vehicle: other
  T/C: 102 % of control

## CCCC1OC(C)CC(C)(C)O1 (configuration not stated)
[4]
  T/C: 94 % of control
[5]
  T/C: 110 % of control
[6]
  T/C: 90 % of control

## O=C(NO)c1cccnc1
endpoint: mean survival time, dose: 270.0 mg/kg/injection, schedule: Q01DX009 (ip), vehicle: other
  T/C: 121 % of control
endpoint: mean survival time, dose: 400.0 mg/kg/injection, schedule: Q01DX001 (ip), vehicle: other
  T/C: 98 % of control
endpoint: mean survival time, dose: 600.0 mg/kg/injection, schedule: Q01DX001 (ip), vehicle: other
  T/C: 101 % of control
endpoint: mean survival time, dose: 800.0 mg/kg/injection, schedule: Q01DX001 (ip), vehicle: other
  T/C: 101 % of control
endpoint: mean survival time, dose: 800.0 mg/kg/injection, schedule: Q01DX009 (ip), vehicle: other
  T/C: 164 % of control

## CC[C@@H](C)[C@H]([C@H](CC(=O)N1CCC[C@@H]1[C@@H](OC)[C@H](C)C(=O)N[C@H](Cc1ccccc1)c1nccs1)OC)N(C)C(=O)[C@H](NC(=O)[C@@H](C(C)C)N(C)C)C(C)C
endpoint: median survival time, dose: 1.63 micrograms/kg/injection, schedule: Q01DX005 (ip), vehicle: saline + alcohol
  T/C: 119 % of control
endpoint: median survival time, dose: 6.5 micrograms/kg/injection, schedule: Q01DX005 (ip), vehicle: saline + alcohol
  T/C: 160 % of control
endpoint: median survival time, dose: 26.0 micrograms/kg/injection, schedule: Q01DX005 (ip), vehicle: saline + alcohol
  T/C: 86 % of control
